In publication PMC5703966, “Systemic clearance and brain distribution of carbazole-based cyanine compounds as Alzheimer’s disease drug candidates” (Scientific Reports, 2017):

Experiment: Hepatocyte binding by RED device
Assay type: in vitro ADME
Procedure: The blood cell partitioning was calculated as follows. […] Plasma, liver microsomes and hepatocyte binding by RED device The stability of the compounds in plasma, liver microsomes and hepatocyte were studied to ensure the reliability of the binding data. Hepatocyte was deactivated by leaving them on a bench for 2 days and going through a freeze thaw cycle thereafter. […] Natural logarithm of peak area ratios (compound peak area normalized by IS peak area) were plotted against time and half-life calculated. The spiked plasma solutions, microsomes and hepatocytes (400 µL) after observing stability were placed into the sample chamber (indicated by the red ring) with 400 µL of PBS into the adjacent chamber. […] The experimental procedure outlined in the Thermo Scientific RED device systems brochure was adopted in the present study . The several positive controls were assayed (Table S4). […] For control experiments, NADPH, UDPGA and/or liver microsomes were omitted from these incubations. […] InVitroGROTM HT Medium was used for thawing suspension of cryopreserved hepatocytes. Incubations were conducted in a 96-well flat-bottom polystyrene plate in duplicate. […] 60, 90, 120 minutes by the addition of 4 folds ACN containing berberine chloride as internal standard 5

[1] = human deactivated hepatocytes 0.5 million cells/mL
[2] = mouse deactivated hepatocytes 0.5 million cells/mL

COCCOCCn1c2ccccc2c2cc(/C=C/c3cc[n+](C)c4ccccc34)ccc21.[I-] [SLM, (E)-4-(2-(9-(2-(2-methoxyethoxy)ethyl)-9H-carbazol-3-yl)-vinyl)-1-methyl-quinolin-1-iumiodide]
f u,hep, % [1]: 11.0 ± 0.870^$$ %
f u,hep, % [2]: 15.0 ± 4.60%

COCCOCCn1c2ccccc2c2cc(/C=C/c3cc[n+](CCO)c4ccccc34)ccc21 [SLOH, (E)-1-(2-hydroxyethyl)-4-(2-(9-(2-(2-metho-xyethoxy)-ethyl)-9H-carbazol-3-yl)vinyl) quinolin-1-ium chloride]
f u,hep, % [1]: 5.50 ± 0.730^$$ %
f u,hep, % [2]: 16.0 ± 5.50%
